How the values were obtained:
[1] = test system: IL-6; experiment: IL-6 mRNA level (qPCR) in cytokine-stimulated Caco-2 cells; type: cell-based, human; settings: 10 μM co-treatment, 6 h, positive control (not shown)
Procedure: (§1) Confluent Caco-2 cells were stimulated with a cocktail of cytokines comprised of tumour necrosis factor-α (TNF-α, 20 ng mL^−1), interleukin-1β (IL-1β, 40 ng mL^−1), interferon-γ (IFN-γ, 10 ng mL^−1) and lipopolysaccharide (LPS, 100 ng mL^−1) in the presence or absence of BET, VUL and IND treatments (5–80 µM) for 6 h. With the completion of incubations, cells were washed with cold DPBS and lysed with TRIsure reagent (Scientific Laboratory Supplies Ltd.). Total RNA of cell samples was extracted in accordance with the manufacturer’s instructions. After resuspending the RNA pellets in DEPC water, concentration and quality were determined using the NanoQuant plate (Tecan Spark 10M plate reader) at 260 and 280 nm. Reverse transcription of RNA was achieved using the iScript™ cDNA Synthesis Kit (Bio-Rad). Transcription levels of target genes—interleukin 6 (IL-6), IL-8, COX-2, iNOS, NADPH oxidase 1 (NOX-1), NAD(P)H quinone dehydrogenase 1 (NQO-1), heme oxygenase 1 (HO-1), glutamate-cysteine ligase catalytic subunit (GCLC), glutathione peroxidase 1 (GPX-1), glutathione S-transferase 1 (GSTA-1) and GSTP-1 were evaluated using SybrGreen based reagent (SensiFast SYBR Green, SLS Ltd., Galveston, TX, USA) via real-time qPCR using StepOne Plus Real-Time PCR System (Applied Biosystems, Nottingham, UK). Primers of target genes were designed and blasted using the NCBI database, whose PCR product sizes were confirmed by 2% agarose gel electrophoresis. The list of primer sequences used in the study is presented in Supplemental Table S1. The calculation of target gene levels was based upon the Livak (2^−ΔΔCT) method with normalisation to the housekeeping gene, β-actin [31].

[2] = test system: IL-8; experiment: IL-8 mRNA level (qPCR) in cytokine-stimulated Caco-2 cells; type: cell-based, human; settings: 10 μM co-treatment, 6 h, positive control (not shown)
Procedure: as §1

Structure (SMILES): COc1cc(/C=C/C(=O)CC(=O)/C=C/c2ccc(O)c(OC)c2)ccc1O [curcumin, reference compound]
- Effect on cytokine-induced IL-6 generation [1]: strongly suppressed
- Effect on cytokine-induced IL-8 generation [2]: strongly suppressed
